# Results: article PMC5046821 (Biochemistry, 2016)
# Biological target: Irp3 (Yersinia enterocolitica, UniProt O54512)
# Experiment: X-ray crystallography, […] Å, cocrystal
# Assay type: binding
# Conditions: with NADP+; pH 7.3; active site, substrate analogue, occupancy 70-85%
structure (smiles),measurement,value
"O=C(O)[C@@H]1CSC(c2csc(-c3ccccc3O)n2)=N1 [HPTT-COOH, 2′-(2-Hydroxyphenyl)-4,5-dihydro[2,4′-bisthiazole]-4-carboxylic Acid]","X-ray crystallography, 1.28 Å, cocrystal",A holo-Irp3 structure was determined with both HPTT-COOH and NADP^+ bound.
